Laboratory results from patent publication US20090197800A1, “Insulin Receptor Binding Peptides with Non-Insulin Gene Activation Profiles and Uses Thereof” (Novo Nordisk A/S, priority 2004, published 2009).
Ends that are not written are not given here.

Tests used:
human SGBS adipocytes = experiment: cDNA microarray analysis of total RNA from SGBS adipocytes treated with S597 or human insulin; type: cell-based; conditions: 30 nM, 18 hours, vs vehicle
Experimental: To compare the transcriptional effects of human insulin (HI) and an exemplary IRBP, IRBP S597, cDNA microarray analyses were performed on total RNA from human SGBS adipocytes treated with S597 (30 nM) or human insulin (30 nM) for 18 hours. The microarray hybridizations were carried out as dual color (Cy3/Cy5) hybridizations comparing vehicle treatments to insulin or S597 treatments. Three individual RNA samples from vehicle, S597, and insulin treated cells were compared, and all hybridizations were repeated with reversed dye combination (e.g. vehicle (Cy3) vs. S597 (Cy5) repeated as vehicle (Cy5) vs. S597 (Cy3)). The specific steps employed in this experimental analysis of the effects of HI versus IRBP S597 are described in the following paragraphs.
(§1) A human preadipocyte cell strain derived from subcutaneous adipose tissue of an infant with Simpson-Golabi-Behmel syndrome (SGBS) was plated out in 6 well plates and grown to confluence in DMEM/F12 medium (Gibco) containing 1% biotin, 1% panthothenic acid, 1% penicillin (10000 U)/streptomycin (10000 U), and 10% Fetal bovine serum (Gibco-Invitrogen, Carlsbad Calif. (USA)—“Gibco”). Differentiation of SGBS preadipocytes into adipocytes was induced by adding DMEM/F12 medium (Gibco) containing 1% biotin, 1% panthothenic acid, 1% penicillin (10,000 U)/streptomycin (10,000 U), 100 nM cortisol, […] triiodothyronine, 20 nM insulin, 250 nM dexamethasone (first 6 days), 500 μM IBMX (first 6 days), 2 μM rosiglitazone (first 3 days) and letting cells differentiate for 14 days.
(§2) Before stimulation with insulin and IRBP S597 the differentiated adipocytes were cultured in DMEM/F12 medium (Gibco) containing 1% biotin, 1% panthothenic acid, 1% penicillin (10,000 U)/streptomycin (10,000 U), 100 nM cortisol, and […] triiodothyronine for 2 days. Insulin and S597 (1, 3, 10, 30, 100 nM) were separately added to cells in DMEM/F12 medium (Gibco) containing 1% biotin, 1% panthothenic acid, 1% penicillin (10,000 U)/streptomycin (10,000 U), 100 nM cortisol, 200 pM triiodothyronine, and 0.1% BSA. Following stimulation for 18 h (18 hours), the cells were washed twice in PBS and 1.3 ml SV RNA-lysis buffer (Promega, Madison, Wis.) was added to each well.
(§3) Total RNA was isolated and DNase treated using SV96 total RNA isolation system (Promega, Madison, Wis.) following manufacturer's instructions.
Incyte Easy-To-Spot™ PCR-products (ETS1220 comprising ˜9000 human clones) (Amersham Biosciences) dissolved in 50% DMSO were spotted on to Corning Ultra Gaps slides (Corning Inc., Corning, N.Y.) at 55% relative humidity using the Molecular Dynamics Gen. III microarray spotter (Amersham Biosciences, Buckinghamshire, UK). All slides were baked at 80° C. for 4 h. Approximately 250 ng of total RNA from cells treated with vehicle, human insulin (30 nM) and S597 (30 nM) were used for synthesis of complementary RNA (amplified RNA (aRNA)) using Amino-allyl MessageAmp™ aRNA kit (Ambion, Austin, Tex.). Amino-allyl cDNA was synthesized from 1.5 μg of each RNA-amplification. The aRNA was incubated with random primer at 70° C. for 10 min. and subsequently chilled on ice for 30 sec. The primer annealed RNA was incubated with reaction mixture (1× Superscript II buffer (Life Technologies, Taastrup, Denmark), 10 mM DTT, 200 μM dGAT(−TP) 100 μM dCTP, 100 μM Cy-3/Cy-5-dCTP (Amersham Biosciences), and 200 units of Superscript II reverse transcriptase (Life Technologies, Taastrup, Denmark) at 42° C. for 2 h in a final volume of 20 μl. The RNA template was removed by alkaline denaturation (incubation with 2 μl 2.5 M NaOH at 37° C. for 15 min.). Amino-allyl labeled probes were purified using a Qiagen PCR purification kit (Qiagen). The amino-allyl cDNA was resuspended in 0.1 M NaHCO3 pH 9.0 and coupled to Cy3/Cy5 NHS-ester (Amersham Biosciences) for 1 h at RT in the dark. Unreacted ester groups were quenched by addition of hydroxylamine. Cy3- and Cy5-labeled cDNA was purified using Qiagen PCR purification kit (Qiagen). […]

SGBS adipocytes = experiment: quantitative RT-PCR of cholesterol biosynthesis genes in SGBS adipocytes; type: cell-based, human; conditions: 18 h; for expression level of HMG-CoA synthase 1 (direction of regulation) / expression level of mevalonate (diphospho) decarboxylase (direction of regulation): quantitative RT-PCR, dose dependent, SGBS adipocytes, FIG. 2
Experimental: as §1, §2, §3
(§4) cDNA was prepared from 100 ng of total RNA from each of the treatments (n=3) using random primers and TaqMan® Reverse (Applied Biosystems, Foster City, Calif. (USA)).
(§5) Transcription reagents were used/applied according to the manufacturer's instructions. Quantitative PCR was performed on each of the cDNA samples (10-fold dilutions of cDNA) using TaqMan® PCR core reagents (Applied Biosystems) on an ABI PRISM® 7000 Sequence Detection System (Applied Biosystems). Primers and FAM-labeled-probes for human and rat HMG-CoA reductase (HMGCR), mevalonate (diphospho) decarboxylase (MVD), HMG-CoA synthase 1 (HMGCS1), 18S rRNA, rat fatty acid synthase (FAS), and rat glucose-6-phosphate catalytic subunit (G6PC) were ordered as Assays-on-Demand (Applied Biosystems).
(§6) Probe sequences for these assays were as follows: HMGCR (human AC-[…] (assay Hs00168352_m1) (SEQ ID NO: 34), rat GCAC-[…] (assay Rn00565598_m1) (SEQ ID NO: 35)), MVD (human […] (assay Hs00159403_m1) (SEQ ID NO: 36), rat […] (assay Rn00579216_m1) (SEQ ID NO: 37)), HMGCS1 (human […] (assay Hs00266810_m1) (SEQ ID NO: 38), rat […] (assay Rn00568579_m1) (SEQ ID NO: 39)), 18S rRNA ([…]; assay HS99999901_s1) (SEQ ID NO: 40), FAS (rat […] (assay Rn00569117_m1) (SEQ ID NO: 41)), and G6PC (rat […] (assay Rn00565347_m1) (SEQ ID NO: 42)). Data were analyzed using ABI Prism 7000 SDS software (version 1.0; Applied Biosystems), and expression levels for HMGCR, MVD, HMGCS1, FAS, and were normalized to the 18S rRNA levels.

primary rat hepatocytes = experiment: quantitative RT-PCR of mRNA expression in primary rat hepatocytes; type: cell-based; conditions: 18 h; for effect on HMGCR mRNA level / effect on HMGCS1 mRNA level / effect on MVD mRNA level: 5 doses (0.1, 0.3, 1, 10, 100 nM), FIG. 3; for mRNA expression of fatty acid synthase (direction of regulation) / mRNA expression of glucose-6-phosphate catalytic subunit (direction of regulation): FIG. 4
Experimental: Male Wistar rats (˜200 g) were anaesthetized with a freshly prepared mixture (1:1) of Hyp-norn (0.05 mg/ml fentalyl/2.5 mg/ml fluabizone) and Dormicum (1.25 mg/ml midazolam) administered subcutaneously (1 ml/kg). Hepatocytes were isolated from rats fed ad libitum by a two-step perfusion technique essentially as described by Seglen, Biochem. J. (1999) 342 (545-550). Cell viability, assessed by Trypan Blue exclusion, was consistently greater than 80%. Cells were plated on to collagen-coated six-well plates in basal medium (Medium 199, 5.5 mM glucose supplemented 100 nM decadron, 1% penicillin (10,000 U)/streptomycin (10,000 U), and 1 nM insulin) with 4% fetal calf serum at a cell density of 1.2*10^6 cells/well. The medium was replaced 1 h after initial plating in order to remove dead cells. […] Following stimulation for 18 h, the cells were washed twice in PBS and 1.3 ml SV RNA-lysis buffer (Promega, Madison, Wis.) were added to each well.
as §3, §4, §5, §6

[1] = quantitative RT-PCR, 1, 3, 10, 30, 100 nM, normalized to 18S, FIG. 1

Substance | HMG-CoA reductase (HMGCR) gene upregulation (human SGBS adipocytes) | HMG-CoA synthase 1 (HMGCS1) gene upregulation (human SGBS adipocytes) | mevalonate (diphospho) decarboxylase (MVD) gene upregulation (human SGBS adipocytes) | dose dependant upregulation of HMG-CoA reductase mRNA (SGBS adipocytes; [1]) | expression level of HMG-CoA synthase 1 (direction of regulation) (SGBS adipocytes) | expression level of mevalonate (diphospho) decarboxylase (direction of regulation) (SGBS adipocytes) | effect on HMGCR mRNA level (primary rat hepatocytes) | effect on HMGCS1 mRNA level (primary rat hepatocytes) | effect on MVD mRNA level (primary rat hepatocytes) | mRNA expression of fatty acid synthase (direction of regulation) (primary rat hepatocytes) | mRNA expression of glucose-6-phosphate catalytic subunit (direction of regulation) (primary rat hepatocytes) | HMG-CoA reductase (HMGCR) gene downregulation (human SGBS adipocytes) | HMG-CoA synthase 1 (HMGCS1) gene downregulation (human SGBS adipocytes) | mevalonate (diphospho) decarboxylase (MVD) gene downregulation (human SGBS adipocytes) | dose dependant downregulation of HMG-CoA reductase mRNA (SGBS adipocytes; [1])
human insulin | 2.3 fold | 2.0 fold | 2.1 fold | ~3 fold up | upregulated | upregulated | clear upregulating effect | clear upregulating effect | clear upregulating effect | upregulation | downregulation |  |  |  | 
Ac-SLEEEWAQIECEVYGRGCPSESFYDWFERQL (cysteine pairing not given here) [S597] |  |  |  |  | downregulated | downregulated | no significant changes | no significant changes | no significant changes | upregulation | downregulation | 2.1 fold | 1.4 fold | 2.5 fold | ~2 fold down
